Measured values as given in US20230183179A1, “NOVEL CELL METABOLISM MODULATING COMPOUNDS AND USES THEREOF” (CRESCENTA BIOSCIENCES, priority 2020, published 2023).

Assays:
[1] = test system: differentiated 3T3-L1 mouse adipocyte cells; assay: Adipocyte glucose consumption in differentiated 3T3-L1 cells (colorimetric glucose assay of the medium); assay type: cell-based; settings: 3T3-L1, 24 h, compound 10 μM, loss of glucose from culture medium, mean fold change (compound/DMSO)
Protocol: Activity of compounds on adipocyte glucose consumption was tested in differentiated 3T3-L1 mouse adipocyte cells. 3T3-L1 preadipocytes (ATCC) were routinely cultured in a growth medium composed of DMEM high-glucose (Sigma), 10% FBS (Gibco), 10 U/ml penicillin and 10 μg/ml streptomycin (P/S; Gibco). To induce adipogenic differentiation, a confluent layer of 3T3-L1 cells were incubated with the growth medium containing 2 μM rosiglitazone, 1 μM dexamethasone, 500 μM IBMX, and 1 μg/ml insulin (Sigma). Forty-eight (48) hours later (on day 2) and on days 4 and 6, medium of the cells was replaced with fresh medium containing 1 μg/ml insulin. On days 8 and 10, the medium was refreshed with regular growth medium and addition of insulin was omitted. On day 11, medium of the cells were 10 replaced with fresh medium containing either the indicated compounds (10 μM) or the vehicle in which the compounds were dissolved (DMSO). The final concentration of DMSO was 0.1% (v/v). Growth medium containing 0.1% DMSO was incubated in culture wells containing no cells and used as control. 24 hours later, medium was harvested and subjected to centrifugation at 10,000 g for 5 min. Glucose concentration in the supernatants was determined using a 15 colorimetric assay (Glucose Assay Kit I, Eton Biosciences). Glucose consumption in compound and vehicle treated cells was measured as loss of glucose from the culture medium and represented as mean fold change (compound/DMSO)±standard deviation (SD).

[2] = target: T1, His6 tagged human recombinant FABP4 (Homo sapiens, UniProt P15090); assay: FABP4 TR-FRET assay: displacement of fluorescent fatty acid BODIPY FL C12; settings: inhibition of BODIPY FL C12 binding to His6-FABP4; 1.2 μL of 1.085 mM compound in DMSO per well; triplicates, mean percent inhibition
T1 construct: purchased Cayman Chemicals 10009549
T1 sequence (P15090 whole entry): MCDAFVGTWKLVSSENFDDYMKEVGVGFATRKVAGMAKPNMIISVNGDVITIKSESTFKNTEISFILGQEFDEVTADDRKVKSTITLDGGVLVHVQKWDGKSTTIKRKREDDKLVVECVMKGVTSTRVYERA
Source text: Activity of compounds with FABP4 was profiled using a Terbium (Tb) based time resolved fluorescence energy transfer (TR-FRET) assay. The assay measures the compound mediated displacement of the fluorescent fatty acid BODIPY FL C12 (Thermo Fisher; catalog number D3822) from His6 tagged human recombinant FABP4 (His6-FABP4; Cayman Chemicals, catalog number 10009549) via recording the energy transfer from TB donor molecule on anti-His6-tag antibody to acceptor BODIPY moiety. Briefly, compounds and BODIPY FL C12 were prepared at a concentration of 1.085 mM and 4.2 μM, respectively, in DMSO. 1.2 μL of each compound or DMSO (vehicle control) and 1.2 μL of BODIPY FL C12 were added into the wells of a 384-well black polypropylene plate. His6-FABP4 and Tb anti-His6 antibody were prepared in the assay buffer (25 mM Tris/HCl, pH 7.4, 0.4 mg/ml γ-globulins, 0.010% NP-40, 1 mM DTT) at a concentration of 83 nM and 49.6 nM, respectively. The protein and antibody solutions were then mixed at a ratio of 34:7 (v/v) and incubated on ice for 30 minutes. The assay was initiated by adding 41 μL of the resulting protein/antibody solution into the wells containing the compounds and BODIPY FL C12. The plate was centrifuged and incubated at room temperature for 10 min. The TR-FRET signals were recorded using an EnVision Multilabel plate reader (PerkinElmer; TB excitation 320 nm, BODIPY FL C12 emission 520 nm; TB emission 615 nm). Relative fluorescence ratio (520 nm*10,000/615 nm) were used to calculate the compound mediated inhibition of BODIPY C12 FL fatty acid binding to FABP4. The compounds were tested in triplicates and the results were represented as mean percent inhibition (compound*100/DMSO)±standard deviation (SD). Glucose consumption and FABP4 inhibition is shown below in Table 3 below. The compounds showing no inhibition of activity in the TR-FRET assay are marked as N.A. N.D. stands for “not determined”.

CCCCCCc1ccc2nc([C@H]3C[C@H]3C(=O)O)cc(-c3ccccc3)c2c1 (relative stereo) [cis-2-(6-hexyl-4-phenylquinolin-2-yl)cyclopropane-1-carboxylic acid]
fold induction at 10 µM [1]: 1.36

CCCCCCc1ccc2nc([C@@H]3C[C@H]3C(=O)O)cc(-c3ccccc3)c2c1 (relative stereo) [trans-2-(6-hexyl-4-phenylquinolin-2-yl)cyclopropane-1-carboxylic acid]
fold induction at 10 µM [1]: 1.14

CCCCc1ccc2nc(N3CCCC(C(=O)O)C3)cc(-c3ccccc3)c2c1 (stereo not drawn) [1-(6-butyl-4-phenylquinolin-2-yl)piperidine-3-carboxylic acid]
inhibition at 1085 µM (stock) [2]: 98.1% | fold induction at 10 µM [1]: 1.25

CCCCc1ccc2nc(N3CCCC3C(=O)O)cc(-c3ccccc3)c2c1 (stereo not drawn) [1-(6-butyl-4-phenylquinolin-2-yl)pyrrolidine-2-carboxylic acid]
inhibition at 1085 µM (stock) [2]: 92.5% | fold induction at 10 µM [1]: 1.12

CCCCCCc1ccc2nc(N3CC(C(=O)O)C3)cc(-c3ccccc3)c2c1 [1-(6-hexyl-4-phenylquinolin-2-yl)azetidine-3-carboxylic acid]
fold induction at 10 µM [1]: 1.27

CCCCCCc1ccc2nc(N3CCC(C(=O)O)C3)cc(-c3ccccc3)c2c1 (stereo not drawn) [1-(6-hexyl-4-phenylquinolin-2-yl)pyrrolidine-3-carboxylic acid]
fold induction at 10 µM [1]: 1.24

O=C(O)C1CCN(c2cc(-c3ccccc3)c3cc(CCc4ccccc4)ccc3n2)C1 (stereo not drawn) [1-[4-phenyl-6-(2-phenylethyl)quinolin-2-yl]pyrrolidine-3-carboxylic acid]
fold induction at 10 µM [1]: 1.21

CCCCCCc1ccc2nc(NCC(=O)O)cc(-c3ccc(F)cc3)c2c1 [2-([4-(4-fluorophenyl)-6-hexylquinolin-2-yl]amino}acetic acid]
fold induction at 10 µM [1]: 1.12

CN(CC(=O)O)c1cc(-c2ccccc2)c2cc(CCN3CCc4ccccc43)ccc2n1 [2-({6-[2-(2,3-dihydro-1H-indol-1-yl)ethyl]-4-phenylquinolin-2-yl}(methyl)amino)acetic acid]
inhibition at 1085 µM (stock) [2]: 76.3%

CN(CC(=O)O)c1cc(-c2ccccc2)c2cc(CCN3CCC(O)CC3)ccc2n1 [2-({6-[2-(4-hydroxypiperidin-1-yl)ethyl]-4-phenylquinolin-2-yl}(methyl)amino)acetic acid]
inhibition at 1085 µM (stock) [2]: 14.3%

CCN(CC)CCc1ccc2nc(N(C)CC(=O)O)cc(-c3ccccc3)c2c1 [2-({6-[2-(diethylamino)ethyl]-4-phenylquinolin-2-yl}(methyl)amino)acetic acid]
inhibition at 1085 µM (stock) [2]: 5.17%

CCCC/C=C/c1ccc2nc(N(C)CC(=O)O)cc(-c3ccccc3)c2c1 [2-({6-[(1E)-hex-1-en-1-yl]-4-phenylquinolin-2-yl}(methyl)amino)acetic acid]
fold induction at 10 µM [1]: 1.32

CCCCc1ccc2nc(N(C)CC(=O)O)cc(-c3ccccc3)c2c1 [2-[(6-butyl-4-phenylquinolin-2-yl)(methyl)amino]acetic acid]
fold induction at 10 µM [1]: 1.37

CCCCCCCc1ccc2nc(N(C)CC(=O)O)cc(-c3ccccc3)c2c1 [2-[(6-heptyl-4-phenylquinolin-2-yl)(methyl)amino]acetic acid]
fold induction at 10 µM [1]: 1.4

CCCCCCc1ccc2nc(N(C)CC(=O)NCCO)cc(-c3ccccc3)c2c1 [2-[(6-hexyl-4-phenylquinolin-2-yl)(methyl)amino]-N-(2-hydroxyethyl)acetamide]
fold induction at 10 µM [1]: 1.11

CCCCCCc1ccc2nc(OC(C)C(=O)O)cc(-c3ccccc3)c2c1 (stereo not drawn) [2-[(6-hexyl-4-phenylquinolin-2-yl)oxy]propanoic acid]
fold induction at 10 µM [1]: 1.25

CN(CC(=O)O)c1cc(-c2ccccc2)c2cc(CCN3CCc4ccccc4C3)ccc2n1 [2-[methyl({4-phenyl-6-[2-(1,2,3,4-tetrahydroisoquinolin-2-yl)ethyl]quinolin-2-yl})amino]acetic acid]
inhibition at 1085 µM (stock) [2]: 21.7%

CN(CC(=O)O)c1cc(-c2ccccc2)c2cc(CCc3ccccn3)ccc2n1 [2-[methyl({4-phenyl-6-[2-(pyridin-2-yl)ethyl]quinolin-2-yl})amino]acetic acid]
fold induction at 10 µM [1]: 1.39

CN(CC(=O)O)c1cc(-c2ccccc2)c2cc(CCN3CCCC3)ccc2n1 [2-[methyl({4-phenyl-6-[2-(pyrrolidin-1-yl)ethyl]quinolin-2-yl})amino]acetic acid]
inhibition at 1085 µM (stock) [2]: 2.04%

CN(CC(=O)O)c1cc(-c2ccccc2)c2cc(/C=C/c3ccccc3)ccc2n1 [2-[methyl({4-phenyl-6-[(1E)-2-phenylethenyl]quinolin-2-yl})amino]acetic acid]
fold induction at 10 µM [1]: 1.21

CN(CC(=O)O)c1cc(-c2ccccc2)c2cc(CCc3nc4ccccc4n3C)ccc2n1 [2-[methyl({6-[2-(1-methyl-1H-1,3-benzodiazol-2-yl)ethyl]-4-phenylquinolin-2-yl})amino]acetic acid]
inhibition at 1085 µM (stock) [2]: 30.3%

CCCCCCc1ccc2nc(N(C)CC(=O)O)cc(-c3ccccc3C(=O)O)c2c1 [2-{2-[(carboxymethyl)(methyl)amino]-6-hexylquinolin-4-yl}benzoic acid]
fold induction at 10 µM [1]: 1.17

CCCCCCc1ccc2nc(N(C)CC(=O)O)cc(-c3ccccc3F)c2c1 [2-{[4-(2-fluorophenyl)-6-hexylquinolin-2-yl](methyl)amino}acetic acid]
fold induction at 10 µM [1]: 1.26

CCCCCCc1ccc2nc(N(C)CC(=O)O)cc(-c3c(C)noc3C)c2c1 [2-{[4-(3,5-dimethyl-1,2-oxazol-4-yl)-6-hexylquinolin-2-yl](methyl)amino}acetic acid]
fold induction at 10 µM [1]: 1.22

CCCCCCc1ccc2nc(N(C)CC(=O)O)cc(-c3cccc(C#N)c3)c2c1 [2-{[4-(3-cyanophenyl)-6-hexylquinolin-2-yl](methyl)amino}acetic acid]
fold induction at 10 µM [1]: 1.26

CCc1ccc(-c2ccc3nc(N(C)CC(=O)O)cc(-c4ccccc4)c3c2)cc1 [2-{[6-(4-ethylphenyl)-4-phenylquinolin-2-yl](methyl)amino}acetic acid]
fold induction at 10 µM [1]: 1.06

CCCCCCCCCCc1ccc2nc(N(C)CC(=O)O)cc(-c3ccc(F)cc3)c2c1 [2-{[6-decyl-4-(4-fluorophenyl)quinolin-2-yl](methyl)amino}acetic acid]
fold induction at 10 µM [1]: 1.37

CCCCCCc1ccc2nc(N(C)CC(=O)O)cc(-c3cccc(C)c3)c2c1 [2-{[6-hexyl-4-(3-methylphenyl)quinolin-2-yl](methyl)amino}acetic acid]
fold induction at 10 µM [1]: 1.11

CN(CC(=O)O)c1cc(-c2ccccc2)c2cc(CCc3ccccc3)ccc2n1 [2-{methyl [4-phenyl-6-(2-phenylethyl)quinolin-2-yl]amino}acetic acid]
fold induction at 10 µM [1]: 1.48

CCCCCCc1ccc2nc(C(C)CC(=O)O)cc(-c3ccccc3)c2c1 (stereo not drawn) [3-(6-hexyl-4-phenylquinolin-2-yl)butanoic acid]
fold induction at 10 µM [1]: 1.3

CCCCc1ccc2nc(N(C)CCC(=O)O)cc(-c3ccccc3)c2c1 [3-[(6-butyl-4-phenylquinolin-2-yl)(methyl)amino]propanoic acid]
fold induction at 10 µM [1]: 1.1

CCCCCCc1ccc2nc(CC3SC(=O)NC3=O)cc(-c3ccccc3)c2c1 (stereo not drawn) [5-[(6-hexyl-4-phenylquinolin-2-yl)methyl]-1,3-thi azolidine-2,4-dione]
fold induction at 10 µM [1]: 1.33

CCCCCCc1ccc2nc(/C=C3/SC(=O)NC3=O)cc(-c3ccccc3)c2c1 [5-[(6-hexyl-4-phenylquinolin-2-yl)methylidene]-1,3-thiazolidine-2,4-dione]
fold induction at 10 µM [1]: 1.29

CCCCCCc1ccc2nc(N(C)c3nn[nH]n3)cc(-c3ccccc3)c2c1 [6-hexyl-N-methyl-4-phenyl-N-(2H-1,2,3,4-tetrazol-5-yl)quinolin-2-amine]
fold induction at 10 µM [1]: 1.11
